Results on 4 compounds are retold here after ChEMBL document CHEMBL1201862, “PubChem BioAssay data set” (2004).

Assay in all cases: inhibition of tumour cell growth, NCI panel, 48 h
The test system of experiment [1] is RXF 393.
For experiment [2], the system named is MDA-MB-435.
For experiment [3], the system named is SK-MEL-5.
The test system of experiment [4] is HCT-15.
The test system of experiment [5] is HCT-116.
Experiment [6] relates to OVCAR-8.
The subject of experiment [7] is A549.
For experiment [8], the system named is SNB-19.
In experiment [9] the test system is NCI-H460.
For experiment [10], the system named is SF-539.
Experiment [11] has as its system Malme-3M.
The subject of experiment [12] is HOP-92.
Experiment [13] relates to EKVX.
Experiment [14] deals with HT-29.
Experiment [15] relates to MOLT-4.
Experiment [16] relates to NCI/ADR-RES.
Experiment [17] concerns OVCAR-4.
Experiment [18] has as its system BT-549.
The test system of experiment [19] is NCI-H23.
Experiment [20] relates to IGROV-1.

The structures appear in SMILES notation.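 Interpolation was linear, between the two tested concentrations surrounding the appropriate level; five concentrations were tested over 48 hours in 96-well plates. Here, GI50 denotes the concentration required for 50% inhibition of growth.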 Active and inactive are the calls of the source. Rule as the data show it: active = GI50 up to about 1.1 µM and inactive = higher.

With `CC(=O)OCC1C(=O)OCC1C(=O)N1Cc2cc3ccccc3nc2C1` (stereo not given), the GI50 in experiment [1] was 1.17 µM (inactive); in experiment [2], 2.42 µM (inactive); in [3] it was 10.2 µM (inactive); in [4], 1.95 µM; in experiment [5] it was 1.27 µM (inactive); in experiment [6] it was 3.2 µM (inactive). The GI50 in experiment [7] is 15.3 µM (inactive); in [8] it was 17.7 µM (inactive); in experiment [9], 13.3 µM (inactive); in experiment [10], 6 µM (inactive); in [11], 1.46 µM (inactive); in experiment [12], 1.24 µM (inactive). The GI50 in experiment [13] was 8.05 µM (inactive); in experiment [14], 2.78 µM (inactive); in experiment [15], 1.44 µM (inactive); in [16] it was 0.69 µM (active); in [17] it was 1.65 µM (inactive); in experiment [18] it was 2.17 µM (inactive). In addition, the values for the GI50 in experiment [19] and in experiment [20] were 3.39 µM (inactive) and 10.1 µM (inactive), respectively.

Turning to `c1ccc(CCc2cccnc2)nc1`, the GI50 in [1] was > 100 µM (inactive); in [2], > 100 µM (inactive); in [3], > 100 µM (inactive); in [4], over 100 µM; in experiment [5], > 100 µM (inactive); in experiment [6] it was > 100 µM (inactive). The GI50 in experiment [7], in experiment [8], in experiment [9], in experiment [10], in experiment [11] and in experiment [12] was > 100 µM (inactive) each time. Besides, the GI50 in experiment [13], in experiment [14], in experiment [15], in [16], in [17] and in experiment [18] was > 100 µM (inactive) throughout. For the same compound, the GI50 in experiment [19] and in experiment [20] was > 100 µM (inactive) in each case.

As for `CCNC(=S)/N=c1\sc(NCC)nc2sc3c(c12)CCN(N1CCc2c(sc4nc(NCC)s/c(=N\C(=S)NCC)c24)C1)C3`, the GI50 in [1] is 8.93 µM (inactive); in [2], 97.5 µM (inactive); in experiment [3] it was 31.8 µM (inactive); in experiment [4] it was over 100 µM; in experiment [5], 19.5 µM (inactive); in experiment [6], 60.4 µM (inactive). In addition, the GI50 in experiment [7] is 82.4 µM (inactive); in experiment [8], 74 µM (inactive); in [9], 76.6 µM (inactive); in experiment [10] it was 15.5 µM (inactive); in experiment [11], > 100 µM (inactive); in [12] it was 5.31 µM (inactive). In addition, the GI50 was > 100 µM (inactive) in [13]; 41.1 µM (inactive) in experiment [14]; 34.1 µM (inactive) in [15]; > 100 µM (inactive) in experiment [16]; 86.1 µM (inactive) in [17]; > 100 µM (inactive) in [18]. The GI50 in experiment [19] was > 100 µM (inactive); in experiment [20], 39.8 µM (inactive).

`COc1cc(S(=O)(=O)Nc2ccc(-c3csc(N4C(=O)C(Cl)C4c4cccc(Oc5ccccc5)c4)n3)cc2)ccc1Cl` (stereo not given): the GI50 was 3.13 µM (inactive) in [1]; 20.3 µM (inactive) in experiment [2]; 29.1 µM (inactive) in experiment [3]; over 100 µM in [4]; 35.6 µM (inactive) in experiment [5]; 30.3 µM (inactive) in experiment [6]. The GI50 in [7] was > 100 µM (inactive); in experiment [8] it was > 100 µM (inactive); in experiment [9], > 100 µM (inactive); in experiment [10], 16.1 µM (inactive); in experiment [11], > 100 µM (inactive); in experiment [12], 15.3 µM (inactive). Further, the GI50 in experiment [13] was 20.7 µM (inactive); in experiment [14], 49.5 µM (inactive); in [15], 15.3 µM (inactive); in [16], > 100 µM (inactive); in experiment [17] it was 4.91 µM (inactive); in experiment [18] it was 21.2 µM (inactive). Besides, the GI50 in experiment [19] was 16 µM (inactive); in [20], 2.71 µM (inactive).
